Data published in patent US20200206198A1, “CFTR CHANNEL ACTIVATOR FOR USE IN THE TREATMENT AND/OR PREVENTION OF GLUTEN SENSITIVITY CONDITIONS” (priority 2017, published 2020).

Key:
TG2 = biological target: T1, TG2 (Homo sapiens, UniProt P21980); assay: TG2 interaction and TG2 activity in Caco-2 cells; assay type: cell-based
T1 construct: Immunoprecipitations of endogenous proteins were performed on 500 μg of lysates from Caco-2 cells; host or cells: Caco-2
T1 sequence (P21980 1-687): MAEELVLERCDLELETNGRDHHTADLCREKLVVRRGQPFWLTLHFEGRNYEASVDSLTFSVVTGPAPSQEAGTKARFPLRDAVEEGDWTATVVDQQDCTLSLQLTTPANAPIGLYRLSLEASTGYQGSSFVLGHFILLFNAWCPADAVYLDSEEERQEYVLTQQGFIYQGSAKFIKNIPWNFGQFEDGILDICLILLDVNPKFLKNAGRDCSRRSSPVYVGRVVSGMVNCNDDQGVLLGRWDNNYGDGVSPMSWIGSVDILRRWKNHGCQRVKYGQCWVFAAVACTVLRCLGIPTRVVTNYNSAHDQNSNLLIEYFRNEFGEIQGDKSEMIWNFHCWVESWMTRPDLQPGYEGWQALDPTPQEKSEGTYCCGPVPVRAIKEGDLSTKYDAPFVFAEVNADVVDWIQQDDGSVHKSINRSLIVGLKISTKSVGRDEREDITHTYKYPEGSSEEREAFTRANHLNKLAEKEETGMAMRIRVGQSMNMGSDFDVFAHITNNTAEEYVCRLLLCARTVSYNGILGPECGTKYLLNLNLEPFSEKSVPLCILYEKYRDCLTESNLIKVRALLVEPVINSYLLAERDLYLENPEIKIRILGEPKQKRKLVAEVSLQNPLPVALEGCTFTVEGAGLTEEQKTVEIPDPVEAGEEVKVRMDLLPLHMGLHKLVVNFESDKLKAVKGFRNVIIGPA
Description: (§1) Human colon adenocarcinoma-derived Caco-2 and T84 cells were obtained from the ATCC. Cells were maintained in T25 flask in Modified Eagle Medium (MEM) for Caco-2, or Ham's F12+DMEM (1:1) for T84, supplemented with 10% fetal bovine serum (FBS), 2 mM Glutamine+1% Non Essential Amino Acids (NEAA) and the antibiotics penicillin\streptomycin (100 units/ml) (all reagents from Lonza) (Luciani, A., et al. 2010. Cells were grown in Transwells (Corning, 3470 or 3460) under the normal condition (Luciani, A., et al. 2012). Briefly, 8×10^4 or 5×10^5 cells were seeded in 6.5-mm diameter or 12-mm diameter, respectively, and grown until the RT reached 800 to 1,200 Ω·cm2. Transwells with a pore size of 0.4 μm were used. Medium in both the apical and basolateral chambers was changed every other day. Cells were treated with 20 μg/ml of either α-gliadin peptide P31-43 or […] or scrambled PGAV or modified P31-43 either biotin-tagged or not, for different time point (from 1 h short challenge up to 24 h). Cells were also treated with 50 or 100 μg/ml of P57-68 or PGAV peptides for 3 h. Caco-2 or T84 cells were also treated with: CFTR potentiators VX-770 (10 μM) or VX-532 (20 μM) (Selleck chemicals) or Genistein (10 μM) (Sigma-Aldrich) or in presence or absence of CFTR inhibitor172 (CFTRinh172, 20 μM) or 3-methyl-adenine (3-MA, 20 μM) (Calbiochem), Z-DON (20 nM, Zedira) or BAPTA-AM (10 μM, Calbiochem).
(§2) The whole lysate or membrane fraction proteins of cell lines and mice intestine homogenates were obtained from treated and untreated cells or mice as described. The equal amount of protein were resolved by SDS-PAGE gel and blotted with antibodies against: SQSTM1, (Sigma Aldrich, 108k4767) 1:1000, PPARγ (Santa Cruz Biotechnology, sc7273) 1:500, BECN1 (Abcam, ab58878) 1:1000, CFTR clone M3A7 (Abcam, ab4067) 1:500, phospho-ERK1/2 (php42/44, Cell Signaling Technology, #91101) 1:1000, UVRAG (Santa Cruz Biotechnology sc8215) 1:1000, NHERF-1 (BD, 611161) 1:1000, EZRIN (BD, 610603) 1:1000, hVps34 (SigmaV9764) 1:300, biotin (Abcam, ab1227) 1:2000, PKAr2a (BD, 610625) 1:500, Ubiquitin (Cell Signaling clone P4D1, #3936) 1:1000, CHIP (Calbiochem PC711) 1:500, Caspase-1 p10 (M-20) (Santa Cruz Biotechnology, sc-514) 1:200, NLRP3 (Abcam, ab4207), 1:500, IDO1 (monoclonal; cv152) 1:1000^[80], used as primary antibodies. Normalization was performed by probing the membrane with anti-β-actin (Cell Signaling, #4970) 1:1000, anti-Gapdh (Sigma-Aldrich, G8795) 1:1000 and anti-flottilin (Abcam ab15148) 1:1000 antibodies. Immunoprecipitations of endogenous proteins were performed on 500 μg of lysates from Caco-2 cells. The proteins were incubated for 12-18 h at 4° C. with 10 ug\ml of specific antibody followed by the addition of Protein A/G-agarose beads for 4 h at 4° C. The beads were then washed three times with lysis buffer and Laemmli's sample buffer was added to the samples. The membranes were then blotted with: CFTR clone CF3 (Abcam, ab2784) 1:1000, TG2 (clone CUB7402; NeoMarkers) 1:1000, CHIP (Calbiochem PC711) 1:500, Ubiquitin (Cell Signaling clone P4D1 3936), isopeptide (Abcam 422) 1:1000, PKAR2 (BD 610625) 1:500.
For detection of complex with biotnylated-P31-43 or immune-complex of glutamime-lysine bonds, the beads were resolved in non-reducing and non-denaturating conditions, and then blotted with Streptavidin-HRP (Sigma 52438) 1:3000 or anti-biotin (Abcam ab2103) 1:2500 and anti-isopeptide (Abcam 422) 1:1000.
TG2 enzymatic activity in Caco-2, treated as described above, was detected: 1) by incubating unfixed sections with biotin-mono-dansylcadaverine (MDC, 10 mM, Molecular Probe) for 1 h at room temperature and then stained with Alexa-fluor488-Streptavidin, as previously described (JI2008/2009) or 2) or by incorporation of 5(biotinamido)pentylamines (BAP) into protein substrates. For BAP-incorporation, 2 mM BAP (Soltec Ventures, B110) were directly added into the medium together with the indicated treatments. […]

Caco-2 cells = assay: Endosomal trafficking proteins in Caco-2 cells (immunoblot, endosomal fractions); assay type: cell-based, human
Description: as §1
as §2, with “The beads were then washed three times with lysis buffer and Laemmli's sample buffer was added to the samples. The membranes were then blotted with: CFTR clone CF3 (Abcam, ab2784) 1:1000, TG2 (clone CUB7402; NeoMarkers) 1:1000, CHIP (Calbiochem PC711) 1:500, Ubiquitin (Cell Signaling clone P4D1 3936), isopeptide (Abcam 422) 1:1000, PKAR2 (BD 610625) 1:500.” left out

Molecule	TG2-mediated glutamine-lysine bonds in CFTR immunoprecipitates (TG2; Caco-2 cells)	covalent interaction with TG2 (TG2; Caco-2 cells, shortly upon challenge)	interaction between TG2 and CFTR by co-immunoprecipitation (TG2; cells incubated with peptide)	Rab5 and Rab7 levels in endosomal protein fractions (Caco-2 cells)	total cellular abundance of BECN1, hVps34 and UVRAG (Caco-2 cells)	effect on P31-43-induced interaction of TG2 and CFTR (TG2; Caco-2 cells)	effect on P31-43-induced TG2 activation (TG2; Caco-2 cells preincubated with VX-770)	impact on TG2-mediated transamidation reactions (TG2; Caco-2 cells pulsed with Ca2+)	effect on P31-43-induced reduction of BECN1, hVps34, UVRAG, Rab5 and Rab7 (Caco-2 cells; lost if 3-MA or CFTR inhibitor added)
α-gliadin peptide LGQQQPFPPQQPY (SEQ ID 1), induces an enterocyte stress response (P31-43 sequence of alpha-gliadin)	induced the formation of TG2-mediated glutamime-lysine bonds	covalently interacted with TG2	stimulated the interaction between TG2 and CFTR	decreased	reduced the total cellular abundance	–	–	–	–
CC(C)(C)c1cc(C(C)(C)C)c(NC(=O)c2c[nH]c3ccccc3c2=O)cc1O [VX-770, N-(2,4-di-tert-butyl-5-hydroxyphenyl)-4-oxo-1,4-dihydroquinoline-3-carboxamide]	–	–	–	–	–	abolished the P31-43-induced interaction of TG2 and CFTR	negated the capability of P31-43 5 to induce TG2 activation	has no impact on TG2mediated transamidation reactions	counteracted
